Assay results published in patent US20050043361A1, “MitoNEET polypeptide from mitochondrial membranes, modulators thereof, and methods of using the same” (priority 2002, published 2005).
Entries after “also recorded” stand apart in the source; their conditions may differ. One block for each molecule: values may come before it.

Experiments:
mitoNEET [1] = target: T1, mitoNEET (Rattus norvegicus, UniProt B0K020); test: Photoaffinity crosslinking of 125I-labelled thiazolidinedione probe to rat liver mitochondria, with or without competing thiazolidinedione; type: binding
T1 construct: newly prepared crude rat liver mitochondria; from tissue; host or cells: rat liver mitochondria (Sprague-Dawley rats)
T1 sequence (B0K020 1-108): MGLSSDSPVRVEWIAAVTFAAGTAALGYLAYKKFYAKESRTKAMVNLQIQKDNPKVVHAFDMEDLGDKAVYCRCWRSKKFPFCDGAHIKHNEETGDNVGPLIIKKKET
Protocol: FIG. 1. A representative 10-20% SDS-PAGE gel (Coomassie stain, left panel) and autoradiogram (right panel). Crosslinking with ^125I-PNU-1010174 was conducted in rat liver mitochondria in the absence (−) or presence of 25 μM (+) of ([6-(2-{4-[(2,4-dioxo-1,3-thiazolidin-5-yl)methyl]phenoxy}ethyl)pyridin-3-yl]acetic acid) (TZD) as described in Example 1. Lanes 1 and 2 are from the rinsed mitochondrial pellet, lanes 3 and 4 represent the same incubations solubilized with 1% Triton X 114, and lanes 5 and 6 are the ammonium sulfate (AS) precipitation of the Triton X 114 soluble material.
FIG. 2. The ammonium sulfate pellets of Triton X 114—soluble mitoNEET from 14 separate incubations conducted with or without competitor were resuspended in a total volume of 200 μl and subjected to HPLC as described in Example 4. Representative data for the minus competitor condition is shown. […] The ^125I, profile from the in-line gamma detector is shown in the lower right panel. The left hand panels show the silver-stained gel (upper left) and corresponding autoradiogram (lower left) of the relevant fractions. Data are shown for a representative rat liver mitochondrial preparation. The ^125I-crosslinked mitoNEET seen in fraction 31 was not present in the preparations crosslinked in the combined presence of ([6-(2-{4-[(2,4-dioxo-1,3-thiazolidin-5-yl)methyl]phenoxy}ethyl)pyridin-3-yl]acetic acid) (not shown). […]

mitoNEET [2] = target: T2, mitoNEET (Bos taurus, UniProt Q3ZBU2); test: Photoaffinity crosslinking of 125I-labelled thiazolidinedione probe to bovine brain mitochondrial fractions (B3/B4); type: binding; details: stored, frozen bovine brain mitochondrial fractions (B3/B4); UV crosslinking
T2 construct: from tissue; host or cells: steer brain, sucrose-density mitochondrial fractions B3/B4
T2 sequence (Q3ZBU2 2-106 limits assumed): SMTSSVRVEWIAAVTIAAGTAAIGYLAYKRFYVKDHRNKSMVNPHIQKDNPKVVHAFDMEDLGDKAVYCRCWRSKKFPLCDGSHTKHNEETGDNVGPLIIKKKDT
Protocol: Bovine brain mitochondria were harvested from bovine brains. This procedure involved dissection of steer brains freshly obtained from a local packinghouse. The rinsed brains were homogenized in fractionation buffer (250 mM sucrose, 50 mM Tris, pH=8.0, containing 1 μg/ml pepstatin A, 5 μg/ml leupeptin, 10 μg/ml bacitracin, and 0.1 mM PMSF). Following removal of nuclei at 5000 rpm in a Beckman Ti50, the mitochondrial pellet was harvested at 20,000×g (12,500 rpm in a Beckman Ti50 rotor) and further enriched by sucrose density centrifugation. Membrane fractions were collected from top of the 1.18 and 1.20 density bands, re-suspended in 50 mM Tris, and collected by centrifugation. The factions (“B3/B4”) were stored at −80° C. until use.
Crosslinking reactions were carried out in a final volume of 200 μl, containing 100 μl membranes, 50 μl 4% DMSO with or without competing thiazolidinedione (usually 100 μM ([6-(2-{4-[(2,4-dioxo-1,3-thiazolidin-5-yl)methyl]phenoxy}ethyl)pyridin-3-yl]acetic acid), 25 μM final concentration), and 50 μl carrier-free ^125I-4-azido-N-[2-({[6-(2-{4-[(2,4-dioxo-1,3-thiazolidin-5-yl)methyl]phenoxy}ethyl)pyridin-3-yl]acetyl}amino)ethyl]-2-hydroxybenzamide (0.1-0.2 μCi/tube). […]

fatty acid oxidation = test: Oxidation of palmitoyl CoA by solubilized mitochondria with and without synthetic mitoNEET (HPLC); type: biochemical; details: excess synthetic mitoNEET; solubilized mitochondrial preparations; CoASH, NAD, FAD, 1 mM palmitoyl CoA
Protocol: FIG. 10. Oxidation of palmitoyl CoA was measured by solubilized mitochondria with and without the addition of synthetic mitoNEET. Reactions were conducted in the presence of CoASH, NAD, FAD, and 1 mM palmitoyl CoA. Remaining palmitoyl CoA at various time points after incubation is shown in the absence (closed circles) and presence of excess synthetic mitoNEET peptide 11A (closed squares). There was no loss of substrate in the absence of mitochondrial membranes (open triangles). Substrate and generated CoA products were measured by HPLC.
Full-length mitoNEET synthesized as in Example 6 was extended to contain a N-terminal biotin. […] A number of these proteins have been identified and are know to be involved in fatty acid oxidation. […] Modulation of mitoNEET function would be expected to increase fatty acid oxidation. Such an approach to find useful modulators as described herein may be taken with synthetic peptide or membranes containing endogenous or overexpressed mitoNEET.

- labeling of mitoNEET by crosslinking (mitoNEET [1]; newly prepared crude rat liver mitochondria, UV crosslinking, carrier-free probe 0.1-0.2 μCi/tube): labeling of the mitoNEET
- labeling of mitoNEET by crosslinking (mitoNEET [2]): labeling of the mitoNEET
Molecule: [N-]=[N+]=Nc1cc(O)c(C(=O)NCCNC(=O)Cc2ccc(CCOc3ccc(CC4SC(=O)NC4=O)cc3)nc2)cc1[125I] (stereo not shown)

Molecule: O=C(O)Cc1ccc(CCOc2ccc(CC3SC(=O)NC3=O)cc2)nc1 (stereo not shown) [[6-(2-{4-[(2,4-dioxo-1,3-thiazolidin-5-yl)methyl]phenoxy}ethyl)pyridin-3-yl]acetic acid]
- 125I-crosslinked mitoNEET peak (HPLC) in presence of competitor (mitoNEET [1]; competitor 25 μM final concentration, HPLC with in-line gamma detector, fraction 31, identical results with bovine brain fractions): lacked this peak; also recorded: not present

B1: synthetic mitoNEET: Full-length mitoNEET polypeptide made by peptide synthesis (peptide, UniProt Q9NZ45 1-108, looked up)
chain: MSLTSSSSVRVEWIAAVTIAAGTAAIGYLAYKRFYVKDHRNKAMINLHIQKDNPKIVHAFDMEDLGDKAVYCRCWRSKKFPFCDGAHTKHNEETGDNVGPLIIKKKET
modifications: full-length chemically synthesized
notes: Full-length mitoNEET polypeptide made by peptide synthesis
- effect on fatty acid oxidation (remaining palmitoyl CoA) (fatty acid oxidation): inhibits fatty acid oxidation
